Results as given in patent US11782064B2, “Methods for simultaneous measurement of multiple biological signals from spectrally identical fluorescent reporters” (Massachusetts Institute of Technology, priority 2019, dated 2023).

Test system: cultured mouse hippocampal neurons
Assay: Multiplexed imaging of four or five reporters under forskolin, PMA or DHPG
Type: cell-based
Protocol: Live neuron imaging was performed on a spinning disk confocal microscope (a Yokogawa® CSU-W1 Confocal Scanner Unit on a Nikon® Eclipse T1 microscope) equipped with a 40×1.15 NA water immersion objective (Nikon® MRD77410) and a Zyla® PLUS 4.2 Megapixel camera controlled by NIS-Elements® AR software. The filter set for GFP was used for imaging GFP intensity-based reporters (GCaMP6f and cAMPr), and the filter set for GFP and the 405 nm excitation filter was used for imaging 488 nm/405 nm excitation ratiometric reporters (ExRaiAKAR and ExRaiCKAR). The filter set for RFP was used for imaging RFP intensity-based reporters (RAB_EKARev). For electrophysiological characterizations of GCaMP6f and S1-GCaMP6f (FIGS. 8D-G, 9A-Q), neurons were recorded in the GFP emission channel at a single focal plane at 20 milliseconds per frame (50 Hz). In the characterization and spatially multiplexed imaging experiments in FIGS. 9R-V, 10D-10G, 10M-10O, neurons were recorded in the GFP emission channel at a single focal plane at 50 milliseconds per frame (20 Hz). […]

Structure (SMILES) | signaling activities induced in neurons (100 μM DHPG for 3 minutes) | signaling activities induced in neurons (100 ng/mL PMA for 3 minutes)
N[C@H](C(=O)O)c1cc(O)cc(O)c1 [DHPG, (S)-3,5-Dihydroxyphenylglycine] | produced increases in cAMP, PKA, PKC, and ERK levels | –
CCCCCCCCCCCCCC(=O)O[C@@H]1[C@@H](C)[C@@]2(O)[C@@H](C=C(CO)C[C@]3(O)C(=O)C(C)=C[C@@H]23)[C@@H]2C(C)(C)[C@]12OC(C)=O [PMA, phorbol 12-myristate 13-acetate] | – | increases of PKC activity
